Experimental data as given in PubChem BioAssay (NCI).
Where “and” joins values, the source holds several entries; their conditions need not be identical. Identical values can stand only once.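 Where inhibition never reached the appropriate level, the endpoint shown equals the highest concentration tested. Otherwise, values were interpolated linearly from a five-concentration, 48-hour dose response in 96-well plates. Abbreviation: GI50, concentration required for 50% inhibition of growth. The concentration for full growth arrest is given as TGI.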

Experiments:
Test in all cases: NCI-60 cell line screen, 48 h
[1] = test system: UACC-62 melanoma
[2] = test system: SF-295 CNS
[3] = test system: SK-OV-3 ovarian
[4] = test system: RPMI-8226 leukemia
[5] = test system: MDA-MB-435
[6] = test system: K-562 leukemia
[7] = test system: SK-MEL-2 melanoma
[8] = test system: COLO 205 colon
[9] = test system: OVCAR-3 ovarian
[10] = test system: HS 578T breast

Structure (SMILES)	GI50 [1]	TGI [1]	GI50 [2]	TGI [2]	GI50 [3]	TGI [3]	GI50 [4]	TGI [4]	GI50 [5]	TGI [5]	GI50 [6]	TGI [6]	GI50 [7]	TGI [7]	GI50 [8]	TGI [8]	GI50 [9]	TGI [9]	GI50 [10]	TGI [10]
CC[C@H](C)[C@H](NC(=O)NC(C)(C)C)C(=O)N(C)[C@H](C[C@@H](OC(C)=O)c1nc(C(=O)N[C@@H](Cc2ccccc2)C[C@H](C)C(=O)OC)cs1)C(C)C	0.172 µM	> 25 µM	0.485 µM	1.83 µM	0.734 µM	> 25 µM	0.263 µM	4.2 µM	0.0884 µM	0.486 µM	0.461 µM	> 25 µM	0.405 µM	> 25 µM	0.446 µM	1.12 µM	0.158 µM	0.964 µM	0.792 µM	> 15.3 µM
O=C(c1ccco1)c1nc2cc(C(F)(F)F)ccc2[n+]([O-])c1C(F)(F)F	45.9 µM	> 100 µM	51.3 µM	> 100 µM	> 100 µM	> 100 µM	20.3 µM	> 100 µM	37 µM	> 100 µM	48.9 µM	> 100 µM	46 µM	> 100 µM	43.8 µM	> 100 µM	30.5 µM	> 100 µM	51.9 µM	> 100 µM
O=C1NC(=O)[C@@H](c2c[nH]c3ccccc23)[C@@H]1c1c[nH]c2ccccc12	> 25 µM	> 25 µM	> 25 µM	> 25 µM	> 25 µM	> 25 µM	> 25 µM	> 25 µM	> 25 µM	> 25 µM	> 25 µM	> 25 µM	> 25 µM	> 25 µM	> 25 µM	> 25 µM	> 25 µM	> 25 µM	24.8 µM	> 25 µM
CN(C)c1ccc2cc3ccc(N(C)C)cc3nc2c1		28.2 µM		15.2 µM		13.9 µM		4.09 µM		13 µM		21.6 µM		21.9 µM		22.8 µM		13.4 µM		10.7 µM
Cc1ccc2nc3c(n2c1)C(=O)C(=O)c1ccccc1-3	0.152 µM	0.324 µM	0.287 µM	0.937 µM	1.01 µM	2.47 µM	0.18 µM	0.717 µM	0.0661 µM	0.137 µM	0.0612 µM	0.286 µM	0.293 µM	0.849 µM	1.91 µM	3.76 µM	0.285 µM	1.07 µM	0.213 µM	0.618 µM
O=C(Oc1ccccc1Cl)c1ccccc1Nc1cccc(C(F)(F)F)c1	16.9 µM	42.9 µM	24.8 µM	54.3 µM	47.5 µM	> 100 µM	18.4 µM	54.2 µM	11.7 µM	32.3 µM	2.67 µM	8.43 µM	20.9 µM	> 100 µM	28 µM	> 100 µM	15.4 µM	32.9 µM	26.1 µM	67.1 µM
Oc1ccc2ccccc2c1N=Nc1ccc(Cl)cc1		> 100 µM		> 100 µM		> 100 µM		> 100 µM		> 100 µM		> 100 µM		> 100 µM		> 100 µM		> 100 µM		> 100 µM
COc1ccc(-n2cc(-c3cc(OC)c(OC)c(OC)c3)[nH]c2=S)cc1Cl	> 100 µM	> 100 µM	43 µM	> 100 µM	17 µM	48.3 µM	5.14 µM	> 100 µM	> 100 µM	> 100 µM	> 100 µM	> 100 µM	> 100 µM	> 100 µM	70.8 µM	> 100 µM	26.1 µM	> 100 µM	17.5 µM	60 µM
O=C(Cn1c(C(=O)c2ccc(Cl)cc2)nc(-c2ccccc2)c1-c1ccccc1)c1ccc(Cl)cc1	> 100 µM	> 100 µM	> 100 µM	> 100 µM	> 100 µM	> 100 µM	> 100 µM	> 100 µM	> 100 µM	> 100 µM	> 100 µM	> 100 µM	> 100 µM	> 100 µM	> 100 µM	> 100 µM	> 100 µM	> 100 µM	> 100 µM	> 100 µM
COc1ccc(C2=N[C@@H](c3ccc(Cl)cc3)[C@@H](c3ccc(Cl)cc3)N2C(=O)N2CCNC(=O)C2)c(OC(C)C)c1	11.3 µM and 2.76 µM and 1.38 µM	25.3 µM and 19.2 µM and 16.6 µM	12.6 µM and 12.9 µM and 14.9 µM	27.3 µM and 26.8 µM and 30.4 µM	16.8 µM and 15.9 µM and 15.4 µM	30.8 µM and 30.9 µM and 30.4 µM	14.6 µM and 16.6 µM and 16.4 µM	> 63.7 µM and 62.7 µM and 56.8 µM	14.2 µM and 13.6 µM and 16.1 µM	27.9 µM and 27.5 µM and 33.3 µM	16.5 µM and 17.1 µM	61.6 µM and 53.1 µM and 74.1 µM	16.3 µM and 14.6 µM and 15.9 µM	30.9 µM and 29 µM and 30.6 µM	15 µM and 16.6 µM and 15.8 µM	29.4 µM and 34.6 µM and 32.2 µM	14 µM and 13.1 µM and 13.7 µM	27.2 µM and 26 µM and 26.8 µM	15.6 µM and 17.3 µM and 17 µM	44 µM and 56 µM and 49.3 µM
COC1C(CO)OC(n2c3c(Cl)cccc3c3c4c(c5c6cccc(Cl)c6[nH]c5c32)C(=O)NC4=O)C(O)C1O (stereo not given)		0.257 µM		4.32 µM		> 24.9 µM		> 18.7 µM		> 100 µM		> 100 µM		> 26.3 µM		61.4 µM		6.67 µM		> 100 µM
